Values quoted from earlier work as cited in patent publication US20180035685A1, “ANTIMICROBIAL COMPOSITIONS” (priority 2015, published 2018).

Columns and labels:
Listeria = settings: pure form; Mandalari et al. (2007)
[1] = stored in cold; applied at 300 ppm

| Compound | Effect on Listerial growth in vitro (Listeria) | Antimicrobial effect on raw beef MAP meat [1] |
| --- | --- | --- |
| COc1ccc([C@@H]2CC(=O)c3c(O)cc(O[C@@H]4O[C@H](CO)[C@@H](O)[C@H](O)[C@H]4O[C@@H]4O[C@@H](C)[C@H](O)[C@@H](O)[C@H]4O)cc3O2)cc1O [neohesperidin] | no effect on Listerial growth | – |
| O=c1oc2c(O)c(O)cc3c(=O)oc4c(O)c(O)cc1c4c23 [ellagic acid] | – | no antimicrobial effect |
